Experimental data taken from US20060229348A1, “Oxindole oxazolidinone as antibacterial agent” (priority 2005, published 2006).
≈ marks a conversion by molar mass, not a printed value.

What was measured:
S. aureus UC-76 SA-1 = assay: in vitro antibacterial activity, S. aureus UC-76 SA-1; type: cell-based; details: Staphylococcus aureus, UC76; strain UC-76 SA-1
Description: (§1) The in vitro antibacterial activity of the compound of the present invention may be assessed by following procedures recommended in (1) National Committee for Clinical Laboratory Standards (January 2003), Methods for dilution antimicrobial tests for bacteria that grow aerobically, Approved Standard (6th ed), M7-A6, NCCLS, Wayne, Pa.; (2) National Committee for Clinical Laboratory Standards (March 2001), Methods for antimicrobial susceptibility testing of anaerobic bacteria, Approved Standard (5th ed), M11-A4, NCCLS, Wayne, Pa.; (3) National Committee for Clinical Laboratory Standards (Jan. 2003), MIC testing supplemental tables, M100-S13 (for use with M7-A6), NCCLS, Wayne, Pa.; and (4) Murray P R, Baron E J, Jorgensen J H, et al. Manual of Clinical Microbiology (8th ed) Washington, D.C.: American Society for Microbiology Press, 2003. The antibacterial activity can be presented in the form of MIC value. The MIC value is the lowest concentration of drug, which prevented macroscopically visible growth under the conditions of the test.

E. faecalis MGH-2 EF 1-1 = assay: in vitro antibacterial activity, E. faecalis MGH-2 EF 1-1; type: cell-based; details: Enterococcus faecalis, MGH2EF11; strain MGH-2 EF 1-1
Description: as §1

S. pneumoniae SV1 SP-3 = assay: in vitro antibacterial activity, S. pneumoniae SV1 SP-3; type: cell-based; details: Streptococcus pneumoniae, SV1SP3; strain SV1 SP-3
Description: as §1

S. pneumoniae (LRSA) = assay: in vitro antibacterial activity (MIC), S. pneumoniae (LRSA); type: cell-based; details: Streptococcus pneumoniae
Description: as §1

MAO-B = target: T1, MAO-B (Homo sapiens, UniProt P27338); assay: monoamine oxidase inhibition, MAO-B; type: biochemical; details: substrate at Km 43 μM; MAO-B 0.008 mg/mL
T1 sequence (P27338 1-520): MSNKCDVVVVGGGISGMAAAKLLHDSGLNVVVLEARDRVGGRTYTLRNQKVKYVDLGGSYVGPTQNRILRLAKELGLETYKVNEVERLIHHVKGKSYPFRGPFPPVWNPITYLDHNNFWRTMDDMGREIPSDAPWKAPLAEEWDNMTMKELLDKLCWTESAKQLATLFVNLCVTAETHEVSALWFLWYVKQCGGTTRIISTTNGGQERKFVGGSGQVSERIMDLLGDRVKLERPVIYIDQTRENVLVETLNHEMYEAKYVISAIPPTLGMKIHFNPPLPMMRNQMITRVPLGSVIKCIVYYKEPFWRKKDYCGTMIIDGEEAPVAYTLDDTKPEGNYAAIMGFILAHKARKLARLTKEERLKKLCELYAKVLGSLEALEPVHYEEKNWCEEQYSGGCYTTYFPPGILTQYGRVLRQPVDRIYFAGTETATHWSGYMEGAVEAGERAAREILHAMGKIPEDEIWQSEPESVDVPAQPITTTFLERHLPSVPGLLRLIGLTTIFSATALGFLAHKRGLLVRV
Procedure: (§2) MAO-A and B inhibition were analyzed by measuring the inhibition of conversion of an MAO substrate, 1-methyl-4-(1-methyl-2-pyrryl)-1,2,3,6-tetrahydropyridine, to its dihydropyridinium metabolite (λ=421 nm). The substrate concentration was equal to the Km (64 μM for MAO-A and 43 μM for MAO-B). The MAO-A concentration was 0.01 mg/mL, and the MAO-B concentration was 0.008 mg/mL. Each inhibitor was tested at seven concentrations. Percent inhibition at each concentration was established relative to the uninhibited control rate, and the IC50 and Ki values were calculated.

MAO-A = target: T2, MAO-A (Homo sapiens, UniProt P21397); assay: monoamine oxidase inhibition, MAO-A; type: biochemical; details: substrate at Km 64 μM; MAO-A 0.01 mg/mL
T2 sequence (P21397 1-527): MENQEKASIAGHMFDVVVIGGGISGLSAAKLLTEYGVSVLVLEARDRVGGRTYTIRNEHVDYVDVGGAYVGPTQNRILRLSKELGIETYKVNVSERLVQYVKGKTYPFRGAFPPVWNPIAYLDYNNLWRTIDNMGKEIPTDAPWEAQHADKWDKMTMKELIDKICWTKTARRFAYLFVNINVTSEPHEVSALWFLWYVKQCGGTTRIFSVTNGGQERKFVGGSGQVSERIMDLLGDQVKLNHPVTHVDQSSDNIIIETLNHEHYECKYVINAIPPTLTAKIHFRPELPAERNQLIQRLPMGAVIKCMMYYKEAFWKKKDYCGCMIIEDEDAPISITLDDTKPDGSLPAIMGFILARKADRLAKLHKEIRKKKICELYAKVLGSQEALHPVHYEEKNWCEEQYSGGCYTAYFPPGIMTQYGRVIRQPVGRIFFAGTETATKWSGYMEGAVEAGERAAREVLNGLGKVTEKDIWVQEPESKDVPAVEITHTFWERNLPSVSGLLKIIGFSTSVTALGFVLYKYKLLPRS
Procedure: as §2

S. aureus (LORSA) = assay: in vitro antibacterial activity (MIC), S. aureus (LORSA); type: cell-based; details: Staphylococcus aureus
Description: as §1

E. faecium (VREF) = assay: in vitro antibacterial activity (MIC), E. faecium (VREF); type: cell-based; details: Enterococcus faecium
Description: as §1

E. faecalis (VREF) = assay: in vitro antibacterial activity (MIC), E. faecalis (VREF); type: cell-based; details: Enterococcus faecalis
Description: as §1

SMILES	MIC90 (S. aureus UC-76 SA-1) [µg/mL]	MIC90 (E. faecalis MGH-2 EF 1-1) [µg/mL]	MIC90 (S. pneumoniae SV1 SP-3) [µg/mL]	MIC90 (S. pneumoniae (LRSA)) [µg/mL]	Ki (MAO-B) [µM]	Ki (MAO-A) [µM]	MIC90 (S. aureus (LORSA)) [µg/mL]	MIC90 (E. faecium (VREF)) [µg/mL]	MIC90 (E. faecalis (VREF)) [µg/mL]
COC(=O)NC[C@H]1CN(c2ccc3c(c2)CC(=O)N3CC2CC2)C(=O)O1 [Example 7, (S)-[3-(1-cyclopropylmethyl-2-oxo-2,3-dihydro-1H-indol-5-yl)-2-oxo-oxazolidin-5-ylmethyl]-carbamic acid methyl ester]	8 (≈ 22.3 µM)	8 (≈ 22.3 µM)	4 (≈ 11.1 µM)						
CCN1C(=O)Cc2cc(N3C[C@H](CNC(=O)OC)OC3=O)ccc21 [Compound No. 1, (5S)-[3-(1-ethyl-2-oxo-2,3-dihydro-1H-indol-5-yl)-2-oxo-oxazolidin-5-ylmethyl]-carbamic acid methyl ester]				2 (≈ 6 µM)	57.4	880	4 (≈ 12 µM)	4 (≈ 12 µM)	4 (≈ 12 µM)
CCCN1C(=O)Cc2cc(N3C[C@H](CNC(=O)OC)OC3=O)ccc21 [Example 5, (S)-[2-oxo-3-(2-oxo-1-propyl-2,3-dihydro-1H-indol-5-yl)-oxazolidin-5-ylmethyl]-carbamic acid methyl ester]	8 (≈ 23 µM)	4 (≈ 11.5 µM)	4 (≈ 11.5 µM)						
COC(=O)NC[C@H]1CN(c2ccc3c(c2)CC(=O)N3C(C)C)C(=O)O1 [Example 4, (S)-[3-(1-isopropyl-2-oxo-2,3-dihydro-1H-indol-5-yl)-2-oxo-oxazolidin-5-ylmethyl]-carbamic acid methyl ester]	8 (≈ 23 µM)	8 (≈ 23 µM)	4 (≈ 11.5 µM)						
COC(=O)NC[C@H]1CN(c2ccc3c(c2)CC(=O)N3C(C)CF)C(=O)O1 (stereo partly drawn) [Example 8, (S)-{3-[1-(2-fluoro-1-methyl-ethyl)-2-oxo-2,3-dihydro-1H-indol-5-yl]-2-oxo-oxazolidin-5-ylmethyl}-carbamic acid methyl ester]	4 (≈ 10.9 µM)	4 (≈ 10.9 µM)	4 (≈ 10.9 µM)						

Further lines, results first:

MIC90 (S. aureus UC-76 SA-1) [µg/mL]	MIC90 (E. faecalis MGH-2 EF 1-1) [µg/mL]	MIC90 (S. pneumoniae SV1 SP-3) [µg/mL]	MIC90 (S. pneumoniae (LRSA)) [µg/mL]	Ki (MAO-B) [µM]	Ki (MAO-A) [µM]	MIC90 (S. aureus (LORSA)) [µg/mL]	MIC90 (E. faecium (VREF)) [µg/mL]	MIC90 (E. faecalis (VREF)) [µg/mL]	SMILES
4 (≈ 11.6 µM)	4 (≈ 11.6 µM)	4 (≈ 11.6 µM)							COC(=O)NC[C@H]1CN(c2ccc3c(c2)CC(=O)N3C2CC2)C(=O)O1 [Example 6, (S)-[3-(1-cyclopropyl-2-oxo-2,3-dihydro-1H-indol-5-yl)-2-oxo-oxazolidin-5-ylmethyl]-carbamic acid methyl ester]
4 (≈ 12.5 µM)	2 (≈ 6.26 µM)	1 (≈ 3.13 µM)							COC(=O)NC[C@H]1CN(c2ccc3c(c2)CC(=O)N3C)C(=O)O1 [Example 2, (S)-[3-(1-methyl-2-oxo-2,3-dihydro-1H-indol-5-yl)-2-oxo-oxazolidin-5-ylmethyl]-carbamic acid methyl ester]
4 (≈ 11.4 µM)	2 (≈ 5.69 µM)	2 (≈ 5.69 µM)							COC(=O)NC[C@H]1CN(c2ccc3c(c2)CC(=O)N3CCF)C(=O)O1 [Example 3, (S)-{3-[1-(2-fluoro-ethyl)-2-oxo-2,3-dihydro-1H-indol-5-yl]-2-oxo-oxazolidin-5-ylmethyl}-carbamic acid methyl ester]
